These results are taken from patent publication US20090099213A1, “Ortho-Condensed Pyridine and Pyrimidine Derivatives (e.g., Purines) as Protein Kinases Inhibitors” (Astex Therapeutics Limited, priority 2004, published 2009).

Molecules are shown by their SMILES. Where two headings read alike, the source gives them in different places.

Usually IC50 stands for the concentration that gives 50% inhibition.

In assay [1] the target is T1, PKA catalytic domain (Homo sapiens, UniProt P17612).
T1 construct: using the PKA catalytic domain from Upstate Biotechnology (#14-440); purchased Upstate Biotechnology 14-440
Nature of the assay: Measurement of PKA kinase inhibitory activity (IC50), radiometric filter plate assay. The format is biochemical. Conditions: 1 nM enzyme, 40 μM ATP, 20 minutes. The procedure:
Compounds of the invention can be tested for PK inhibitory activity using the PKA catalytic domain from Upstate Biotechnology (#14-440) and the 9 residue PKA specific peptide ([…]), also from Upstate Biotechnology (#12-257), as the substrate. A final concentration of 1 nM enzyme is used in a buffer that includes 20 mM MOPS pH 7.2, 40 μM ATP/γ^33P-ATP and […] substrate. Compounds are added in dimethylsulphoxide (DMSO) solution to a final DMSO concentration of 2.5%. The reaction is allowed to proceed for 20 minutes before addition of excess orthophosphoric acid to quench activity. Unincorporated γ^33P-ATP is then separated from phosphorylated proteins on a Millipore MAPH filter plate. The plates are washed, scintillant is added and the plates are then subjected to counting on a Packard Topcount.
The % inhibition of the PKA activity is calculated and plotted in order to determine the concentration of test compound required to inhibit 50% of the PKA activity (IC50).

Assay [2] has as its target T2, PKB-PIF (Homo sapiens, UniProt P31751).
T2 construct: fusion partner; made in house
Nature of the assay: Measurement of PKB kinase inhibitory activity (IC50), radiometric filter plate assay. The format is biochemical. The text has this:
The inhibition of protein kinase B (PKB) activity by compounds can be determined essentially as described by Andjelkovic et al. (Mol. Cell. Biol. 19, 5061-5072 (1999)) but using a fusion protein described as PKB-PIF and described in full by Yang et al (Nature Structural Biology 9, 940-944 (2002)). The protein is purified and activated with PDK1 as described by Yang et al. The peptide AKTide-2T (H-A-R-K-R-E-R-T-Y-S-F-G-H-H-A-OH) obtained from Calbiochem (#123900) is used as a substrate. A final concentration of 0.6 nM enzyme is used in a buffer that includes 20 mM MOPS pH 7.2, 30 μM ATP/γ^33P-ATP and 25 μM substrate. Compounds are added in DMSO solution to a final DMSO concentration of 2.5%. The reaction is allowed to proceed for 20 minutes before addition of excess orthophosphoric acid to quench activity. The reaction mixture is transferred to a phosphocellulose filter plate where the peptide binds and the unused ATP is washed away. After washing, scintillant is added and the incorporated activity measured by scintillation counting.
The % inhibition of the PKB activity is calculated and plotted in order to determine the concentration of test compound required to inhibit 50% of the PKB activity (IC50).

Setting [3] is: 0.6 nM enzyme, 30 μM ATP, 25 μM AKTide-2T substrate, 20 minutes, read-out: IC50 (PKB activity).

T2 sequence (P31751 with tags, fused parts or gaps limits assumed): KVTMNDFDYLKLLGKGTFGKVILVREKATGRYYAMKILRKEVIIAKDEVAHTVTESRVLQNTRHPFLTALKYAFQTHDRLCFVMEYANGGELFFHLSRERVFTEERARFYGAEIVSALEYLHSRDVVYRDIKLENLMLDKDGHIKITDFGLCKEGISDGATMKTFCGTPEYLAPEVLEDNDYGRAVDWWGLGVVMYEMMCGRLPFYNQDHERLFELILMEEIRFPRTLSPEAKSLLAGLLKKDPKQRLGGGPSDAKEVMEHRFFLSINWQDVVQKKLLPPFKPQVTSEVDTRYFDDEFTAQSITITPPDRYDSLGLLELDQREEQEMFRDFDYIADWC

As to `Clc1ccc(C2(c3ccc(-c4ncnc5[nH]cnc45)cc3)CCNCC2)cc1` [Example 22, 6-(4-[4-(4-Chlorophenyl)-piperidin-4-yl)-phenyl)-9H-purine], the IC50 in assay [1] and in assay [2] (setting [3]) was less than 10 µM each time.

Consider `NC(c1ccc(Cl)cc1)C1CCN(c2ncnc3[nH]c(=O)[nH]c23)CC1` (centres unmarked) [Example 14, 6-[4-(Amino(4-chlorophenyl)methyl)piperidin-1-yl]-7,9-dihydropurin-8-one], for which the IC50 in assay [1] and in assay [2] (setting [3]) was less than 10 µM throughout. With `NC(c1ccc(Cl)cc1)C1CCN(c2ccnc3[nH]ccc23)CC1` (centres unmarked) [Example 29, C-(4-Chlorophenyl)-C-[1-(1H-pyrrolo[2,3-b]pyridin-4-yl)piperidin-4-yl]methylamine], the IC50 in assay [1] and in assay [2] (setting [3]) was less than 10 µM throughout. For the compound `N#CCc1ccc(-c2ncnc3[nH]cnc23)cc1` [Example 8, (4-(9H-purin-6-yl)phenyl)acetonitrile], in assay [2] (setting [3]), the IC50 is less than 50 µM. The same measure, in the same setting: as for `NC(=O)C1CCN(c2ncnc3[nH]cnc23)CC1` [Example 11, 1-(9H-Purin-6-yl)piperidine-4-carboxylic Acid Amide], the figure is less than 50 µM.

For `NCC1CCN(c2ncnc3[nH]cnc23)CC1` [Example 12, C-[1-(9H-Purin-6-yl)piperidin-4-yl]methylamine], the IC50 in assay [1] and in assay [2] (setting [3]) was less than 10 µM each time. Turning to `NCCc1cccc(-c2ncnc3[nH]cnc23)c1` [Example 10, 2-(3-(9H-purin-6-yl)phenyl)ethylamine], in assay [2], the IC50 is less than 10 µM. As to `NC(CCNc1ncnc2[nH]c(=O)[nH]c12)c1ccc(F)cc1` (centres unmarked) [Example 4, 6-[3-Amino-3-(4-fluorophenyl)propylamino]-7,9-dihydropurin-8-one], the figures for the half-maximal inhibitory concentration (IC50) in assay [1] and in assay [2] (setting [3]) were less than 150 µM and less than 10 µM, respectively. For the compound `NC(c1ccccc1)c1ccc(-c2ncnc3[nH]cnc23)cc1` (centres unmarked) [Example 19, C-Phenyl-C-[4-(9H-purin-6-yl)-phenyl]-methylamine], in assay [2] (setting [3]), the half-inhibitory concentration (IC50) was less than 10 µM. Regarding `Clc1ccc(C2(c3ccc(-c4ncnc5[nH]ccc45)cc3)CCNCC2)cc1` [Example 23, 4-{4-[4-(4-Chloro-phenyl)-piperidin-4-yl]-phenyl}-7H-pyrrolo[2,3-d]pyrimidine], the 50% inhibitory concentration (IC50) in assay [1] and in assay [2] (setting [3]) was less than 10 µM in each case.

In the case of `NCCCOc1cccc(-c2ncnc3[nH]cnc23)c1` [Example 16, 3-[3-(9H-Purin-6-yl)-phenoxy]-propylamine], the IC50 in assay [2] (setting [3]) was less than 10 µM. Take `NCC1CCN(c2ncnc3[nH]ccc23)CC1` [Example 18, C-[1-(7H-Pyrrolo[2,3-d]pyrimidin-4-yl)-piperidin-4-yl]-methylamine]: the IC50 in assay [1] and in assay [2] (setting [3]) was less than 10 µM throughout.

In the case of `NC(Cc1ccccc1)c1ccc(-c2ncnc3[nH]cnc23)cc1` (centres unmarked) [Example 20, 2-Phenyl-1-[4-(9H-purin-6-yl)-phenyl]-ethylamine], the concentration for half-maximal inhibition (IC50) in assay [1] and in assay [2] (setting [3]) was less than 10 µM in each case. As to `NCCc1ccc(-c2ncnc3[nH]cnc23)cc1` [Example 9, 2-(4-(9H-Purin-6-yl)phenyl)ethylamine], the IC50 in assay [2] (setting [3]) is less than 50 µM. In the case of `NC(c1ccc(Cl)cc1)C1CCN(c2ncnc3[nH]ccc23)CC1` (centres unmarked) [Example 25, C-4-Chlorophenyl-C-[1-(7H-pyrrolo[2,3-d]pyrimidin-4-yl)-piperidin-4-yl]-methylamine], the IC50 in assay [1] and in assay [2] (setting [3]) was less than 10 µM in each case. In the case of `NC(c1ccc(Cl)cc1)c1ccc(-c2ncnc3[nH]cnc23)cc1` (centres unmarked) [Example 28, C-(4-Chloro-phenyl)-C-[4-(9H-purin-6-yl)-phenyl]-methylamine], the IC50 in assay [2] (setting [3]) was less than 10 µM. The same measure, in the same setting: in the case of `CNCCCNc1ncnc2[nH]cnc12` [Example 1, N-Methyl-N′-(9H-purin-6-yl)-propane-1,3-diamine] it was less than 10 µM. Take `CNCC(c1ccc(Cl)cc1)c1ccc(-c2ccnc3[nH]ccc23)cc1` (centres unmarked) [Example 30, {2-(4-Chloro-phenyl)-2-[4-(1H-pyrrolo[2,3-b]pyridin-4-yl)-phenyl]-ethyl}-methyl-amine]: the IC50 in assay [1] and in assay [2] (setting [3]) was less than 10 µM throughout. As for `NC(CCNc1ncnc2[nH]cnc12)c1ccc(F)cc1` (centres unmarked) [Example 3, 1-(4-Fluorophenyl)-N^3-(9H-purin-6-yl)propane-1,3-diamine], the IC50 in assay [2] (setting [3]) is less than 10 µM. For `CNCc1cccc(-c2ncnc3[nH]cnc23)c1` [Example 7, Methyl-(3-(9H-purin-6-yl)benzyl)amine], the IC50 in assay [1] and in assay [2] (setting [3]) was less than 10 µM throughout.

`NCC1CCN(c2ncnc3[nH]c(=O)[nH]c23)CC1` [Example 15, 6-(4-Aminomethylpiperidin-1-yl)-7,9-dihydropurin-8-one]: the IC50 in assay [2] (setting [3]) was less than 10 µM. Take `NC(CCNc1ncnc2[nH]cnc12)c1ccc(Cl)cc1` (centres unmarked) [Example 5, 1-(4-Chlorophenyl)-N^3-(9H-purin-6-yl)propane-1,3-diamine]: the IC50 in assay [1] and in assay [2] (setting [3]) was less than 10 µM throughout. Take `NC(c1ccccc1)C1CCN(c2ncnc3[nH]ccc23)CC1` (centres unmarked) [Example 24, C-Phenyl-C-[1-(7H-pyrrolo[2,3-d]pyrimidin-4-yl)-piperidin-4-yl]-methylamine]: in assay [2] (setting [3]), the half-inhibitory concentration (IC50) is less than 10 µM. For `NC(c1ccc(Cl)cc1)C1CCN(c2ncnc3[nH]cnc23)CC1` (centres unmarked) [Example 26, C-(4-Chloro-phenyl)-C-[1-(9H-purin-6-yl)-piperidin-4-yl]-methylamine], the IC50 in assay [2] (setting [3]) is less than 10 µM.

Turning to `CNCc1ccc(-c2ncnc3[nH]cnc23)cc1` [Example 6, Methyl-(4-(9H-purin-6-yl)benzyl)amine], the 50% inhibitory concentration (IC50) in assay [1] and in assay [2] (setting [3]) was less than 10 µM each time. In the case of `Clc1ccc(C2(c3ccc(-c4ccnc5[nH]ccc45)cc3)CCNCC2)cc1` [Example 27, 4-{4-[4-(4-Chloro-phenyl)-piperidin-4-yl]-phenyl}-1H-pyrrolo[2,3-b]pyridine], the IC50 in assay [2] (setting [3]) is less than 10 µM. Same read-out and setting: as for `NC(Cc1ccccc1)C1CCN(c2ncnc3[nH]c(=O)[nH]c23)CC1` (centres unmarked) [Example 21, 6-[4-(1-Amino-2-phenylethyl)piperidin-1-yl]-7,9-dihydropurin-8-one], the figure is less than 50 µM. `NCC1CCN(c2ncnc3[nH]ncc23)CC1` [Example 17, C-[1-(1H-Pyrazolo[3,4-d]pyrimidin-4-yl)-piperidin-4-yl]-methylamine]: the IC50 in assay [1] and in assay [2] (setting [3]) was less than 10 µM each time. Take `NC(c1ccccc1)C1CCN(c2ncnc3[nH]c(=O)[nH]c23)CC1` (centres unmarked) [Example 13, 6-[4-(Aminophenylmethyl)piperidin-1-yl]-7,9-dihydropurin-8-one]: the IC50 in assay [2] (setting [3]) is less than 10 µM. `NC(c1ccc(Cl)cc1)C1CCN(c2ccnc3[nH]ccc23)CC1` (single isomer, unassigned) [Example 32, C-(4-Chlorophenyl)-C-[1-(1H-pyrrolo[2,3-b]pyridin-4-yl)piperidin-4-yl]methylamine]: the IC50 in assay [2] (setting [3]) is less than 10 µM. In the case of `CNCCCNc1ncnc2[nH]c(=O)[nH]c12` [Example 2, 6-(3-Methylamino-propylamino)-7,9-dihydro-purin-8-one], in assay [2] (setting [3]), the IC50 was less than 10 µM. Regarding `NCC1CCCN(c2ncnc3[nH]ccc23)C1` (centres unmarked) [Example 31, C-[1-(7H-Pyrrolo[2,3-d]pyrimidin-4-yl)piperidin-3-yl]methylamine], the IC50 in assay [1] and in assay [2] (setting [3]) was less than 10 µM throughout.
